The structures appear in SMILES notation.

The first experiment concerns SW872. The experiment can be described thus: cells. The format is functional, cell-based, Homo sapiens. The settings on record: Homo sapiens, SW872.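 Note: growth inhibition of SW872 cells, read out by a viability assay.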
Description: SANGER: Inhibition of human SW872 cell growth in a cell viability assay.
Usually IC50 stands for the concentration at which inhibition is half-maximal. `CC1(C)CCC(c2ccc(Cl)cc2)=C(CN2CCN(c3ccc(C(=O)NS(=O)(=O)c4ccc(N[C@H](CCN5CCOCC5)CSc5ccccc5)c(S(=O)(=O)C(F)(F)F)c4)cc3)CC2)C1` [NAVITOCLAX] yielded an IC50 of over 2000 nM.

The test system of a further experiment is A4-Fuk. The experiment can be described thus: cells. The format is functional, cell-based, Homo sapiens. The settings on record: Homo sapiens, A4-Fuk.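 Note: growth inhibition of A4-Fuk cells, read out by a cell viability assay.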
Description: SANGER: Inhibition of human A4-Fuk cell growth in a cell viability assay.
The molecule `CC1(C)CCC(c2ccc(Cl)cc2)=C(CN2CCN(c3ccc(C(=O)NS(=O)(=O)c4ccc(N[C@H](CCN5CCOCC5)CSc5ccccc5)c(S(=O)(=O)C(F)(F)F)c4)cc3)CC2)C1` [NAVITOCLAX] had an IC50 of over 2000 nM.

Another experiment concerns SCH. Description: cells. The format is functional, cell-based, Homo sapiens. Particulars: Homo sapiens, SCH.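 Note: growth inhibition of human SCH cells, read out in a cell viability assay.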
Description: SANGER: Inhibition of human SCH cell growth in a cell viability assay.
In turn, `CC1(C)CCC(c2ccc(Cl)cc2)=C(CN2CCN(c3ccc(C(=O)NS(=O)(=O)c4ccc(N[C@H](CCN5CCOCC5)CSc5ccccc5)c(S(=O)(=O)C(F)(F)F)c4)cc3)CC2)C1` [NAVITOCLAX] gave an IC50 of over 2000 nM.

The test system of the next experiment is SK-NEP-1. Description: cells. Particulars: Homo sapiens, SK-NEP-1. The format is functional, cell-based, Homo sapiens.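 Note: growth inhibition of human SK-NEP-1 cells, read out by a cell viability assay.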
Description: SANGER: Inhibition of human SK-NEP-1 cell growth in a cell viability assay.
Take `CC1(C)CCC(c2ccc(Cl)cc2)=C(CN2CCN(c3ccc(C(=O)NS(=O)(=O)c4ccc(N[C@H](CCN5CCOCC5)CSc5ccccc5)c(S(=O)(=O)C(F)(F)F)c4)cc3)CC2)C1` [NAVITOCLAX]: the concentration for half-maximal inhibition (IC50) turned out to be 72.1 nM.

The subject of the next experiment is SK-N-DZ. Description: cells. The format is functional, cell-based, Homo sapiens. The settings on record: Homo sapiens, SK-N-DZ; read-out: IC50.
Description: SANGER: Inhibition of human SK-N-DZ cell growth in a cell viability assay.
Consider `CC1(C)CCC(c2ccc(Cl)cc2)=C(CN2CCN(c3ccc(C(=O)NS(=O)(=O)c4ccc(N[C@H](CCN5CCOCC5)CSc5ccccc5)c(S(=O)(=O)C(F)(F)F)c4)cc3)CC2)C1` [NAVITOCLAX], for which the IC50 is over 2000 nM.

The subject of another experiment is D283 Med. Description: cells. The format is functional, cell-based, Homo sapiens. Particulars: Homo sapiens, D283 Med.
Description: SANGER: Inhibition of human D-283MED cell growth in a cell viability assay.
Take `CC1(C)CCC(c2ccc(Cl)cc2)=C(CN2CCN(c3ccc(C(=O)NS(=O)(=O)c4ccc(N[C@H](CCN5CCOCC5)CSc5ccccc5)c(S(=O)(=O)C(F)(F)F)c4)cc3)CC2)C1` [NAVITOCLAX]: 177 nM corresponded to half-maximal inhibition (IC50).

Another experiment has as its system NCI-H1838. Description: cells. The format is functional, cell-based, Homo sapiens. The settings on record: Homo sapiens, NCI-H1838.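 Note: growth inhibition of NCI-H1838 cells, determined with a cell viability readout.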
Description: SANGER: Inhibition of human NCI-H1838 cell growth in a cell viability assay.
`CC1(C)CCC(c2ccc(Cl)cc2)=C(CN2CCN(c3ccc(C(=O)NS(=O)(=O)c4ccc(N[C@H](CCN5CCOCC5)CSc5ccccc5)c(S(=O)(=O)C(F)(F)F)c4)cc3)CC2)C1` [NAVITOCLAX] gave a half-inhibitory concentration (IC50) of over 2000 nM.

The test system of a further experiment is EOL1. Description: cells. The format is functional, cell-based, Homo sapiens. The settings on record: Homo sapiens, EOL1.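 Note: growth inhibition of EoL-1 cells, read out by a cell viability assay.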
Description: SANGER: Inhibition of human EoL-1-cell cell growth in a cell viability assay.
The molecule `CC1(C)CCC(c2ccc(Cl)cc2)=C(CN2CCN(c3ccc(C(=O)NS(=O)(=O)c4ccc(N[C@H](CCN5CCOCC5)CSc5ccccc5)c(S(=O)(=O)C(F)(F)F)c4)cc3)CC2)C1` [NAVITOCLAX] showed an IC50 of 6.69 nM.

A further experiment has as its system BV-173. The experiment can be described thus: cells. The settings on record: Homo sapiens, BV-173. The format is functional, cell-based, Homo sapiens.
Description: SANGER: Inhibition of human BV-173 cell growth in a cell viability assay.
`CC1(C)CCC(c2ccc(Cl)cc2)=C(CN2CCN(c3ccc(C(=O)NS(=O)(=O)c4ccc(N[C@H](CCN5CCOCC5)CSc5ccccc5)c(S(=O)(=O)C(F)(F)F)c4)cc3)CC2)C1` [NAVITOCLAX] showed an IC50 of 23.1 nM.

The test system of a further experiment is EKVX. Description: cells. The format is functional, cell-based, Homo sapiens. Particulars: Homo sapiens, EKVX.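 Note: growth inhibition of human EKVX cells, read out with a cell viability assay.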
Description: SANGER: Inhibition of human EKVX cell growth in a cell viability assay.
Consider `CC1(C)CCC(c2ccc(Cl)cc2)=C(CN2CCN(c3ccc(C(=O)NS(=O)(=O)c4ccc(N[C@H](CCN5CCOCC5)CSc5ccccc5)c(S(=O)(=O)C(F)(F)F)c4)cc3)CC2)C1` [NAVITOCLAX], for which the IC50 is over 2000 nM.

A further experiment concerns COLO-800. The experiment can be described thus: cells. The format is functional, cell-based, Homo sapiens. The settings on record: Homo sapiens, COLO-800.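 Note: growth inhibition of COLO-800 cells, read out with a cell viability assay.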
Description: SANGER: Inhibition of human COLO-800 cell growth in a cell viability assay.
For the molecule `CC1(C)CCC(c2ccc(Cl)cc2)=C(CN2CCN(c3ccc(C(=O)NS(=O)(=O)c4ccc(N[C@H](CCN5CCOCC5)CSc5ccccc5)c(S(=O)(=O)C(F)(F)F)c4)cc3)CC2)C1` [NAVITOCLAX], the IC50 is over 2000 nM.

Another experiment relates to NB10. Description: cells. The format is functional, cell-based, Homo sapiens. The settings on record: Homo sapiens, NB10.
Description: SANGER: Inhibition of human NB10 cell growth in a cell viability assay.
In turn, `CC1(C)CCC(c2ccc(Cl)cc2)=C(CN2CCN(c3ccc(C(=O)NS(=O)(=O)c4ccc(N[C@H](CCN5CCOCC5)CSc5ccccc5)c(S(=O)(=O)C(F)(F)F)c4)cc3)CC2)C1` [NAVITOCLAX] showed an IC50 of over 2000 nM.

The next experiment deals with U-87 MG. Description: cells. The format is functional, cell-based, Homo sapiens, U-87MG ATCC. Particulars: Homo sapiens, U-87 MG.
Description: SANGER: Inhibition of human U-87-MG cell growth in a cell viability assay.
Consider `CC1(C)CCC(c2ccc(Cl)cc2)=C(CN2CCN(c3ccc(C(=O)NS(=O)(=O)c4ccc(N[C@H](CCN5CCOCC5)CSc5ccccc5)c(S(=O)(=O)C(F)(F)F)c4)cc3)CC2)C1` [NAVITOCLAX], for which the IC50 was over 2000 nM.

The subject of a further experiment is KINGS-1. Description: cells. Particulars: Homo sapiens, KINGS-1. The format is functional, cell-based, Homo sapiens.
Description: SANGER: Inhibition of human KINGS-1 cell growth in a cell viability assay.
`CC1(C)CCC(c2ccc(Cl)cc2)=C(CN2CCN(c3ccc(C(=O)NS(=O)(=O)c4ccc(N[C@H](CCN5CCOCC5)CSc5ccccc5)c(S(=O)(=O)C(F)(F)F)c4)cc3)CC2)C1` [NAVITOCLAX]: the half-inhibitory concentration (IC50) is over 2000 nM.

In a further experiment the test system is QIMR-WIL. Description: cells. The format is functional, cell-based, Homo sapiens. The settings on record: Homo sapiens, QIMR-WIL.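 Note: growth inhibition of QIMR-WIL cells, read out with a cell viability assay.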
Description: SANGER: Inhibition of human QIMR-WIL cell growth in a cell viability assay.
Consider `CC1(C)CCC(c2ccc(Cl)cc2)=C(CN2CCN(c3ccc(C(=O)NS(=O)(=O)c4ccc(N[C@H](CCN5CCOCC5)CSc5ccccc5)c(S(=O)(=O)C(F)(F)F)c4)cc3)CC2)C1` [NAVITOCLAX], for which the midpoint of inhibition, the IC50, lay at 42.9 nM.

The subject of another experiment is ETK-1. Description: cells. The format is functional, cell-based, Homo sapiens. Particulars: Homo sapiens, ETK-1.
Description: SANGER: Inhibition of human ETK-1 cell growth in a cell viability assay.
Turning to `CC1(C)CCC(c2ccc(Cl)cc2)=C(CN2CCN(c3ccc(C(=O)NS(=O)(=O)c4ccc(N[C@H](CCN5CCOCC5)CSc5ccccc5)c(S(=O)(=O)C(F)(F)F)c4)cc3)CC2)C1` [NAVITOCLAX], the concentration for half-maximal inhibition (IC50) was over 2000 nM.

The subject of another experiment is MSTO-211H. The experiment can be described thus: cells. The format is functional, cell-based, Homo sapiens. The settings on record: Homo sapiens, MSTO-211H.
Description: SANGER: Inhibition of human MSTO-211H cell growth in a cell viability assay.
The molecule `CC1(C)CCC(c2ccc(Cl)cc2)=C(CN2CCN(c3ccc(C(=O)NS(=O)(=O)c4ccc(N[C@H](CCN5CCOCC5)CSc5ccccc5)c(S(=O)(=O)C(F)(F)F)c4)cc3)CC2)C1` [NAVITOCLAX] registered an IC50 of over 2000 nM.

For another experiment, the system named is COLO-829. Description: cells. The format is functional, cell-based, Homo sapiens. The settings on record: Homo sapiens, COLO-829.
Description: SANGER: Inhibition of human COLO-829 cell growth in a cell viability assay.
`CC1(C)CCC(c2ccc(Cl)cc2)=C(CN2CCN(c3ccc(C(=O)NS(=O)(=O)c4ccc(N[C@H](CCN5CCOCC5)CSc5ccccc5)c(S(=O)(=O)C(F)(F)F)c4)cc3)CC2)C1` [NAVITOCLAX] came in with an IC50 of over 2000 nM.

Another experiment relates to K562. Description: cells. Particulars: Homo sapiens, K562. The format is functional, cell-based, Homo sapiens.
Description: SANGER: Inhibition of human K-562 cell growth in a cell viability assay.
In the case of `CC1(C)CCC(c2ccc(Cl)cc2)=C(CN2CCN(c3ccc(C(=O)NS(=O)(=O)c4ccc(N[C@H](CCN5CCOCC5)CSc5ccccc5)c(S(=O)(=O)C(F)(F)F)c4)cc3)CC2)C1` [NAVITOCLAX], the IC50 was over 2000 nM.

For another experiment, the system named is NCI-H69. Description: cells. The format is functional, cell-based, Homo sapiens. The settings on record: Homo sapiens, NCI-H69.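 Note: growth inhibition of the cell line, read out with a cell viability assay.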
Description: SANGER: Inhibition of human NCI-H69 cell growth in a cell viability assay.
The molecule `CC1(C)CCC(c2ccc(Cl)cc2)=C(CN2CCN(c3ccc(C(=O)NS(=O)(=O)c4ccc(N[C@H](CCN5CCOCC5)CSc5ccccc5)c(S(=O)(=O)C(F)(F)F)c4)cc3)CC2)C1` [NAVITOCLAX] came in with a 50% inhibitory concentration (IC50) of over 2000 nM.

A further experiment deals with A101D. The experiment can be described thus: cells. The format is functional, cell-based, Homo sapiens. Particulars: Homo sapiens, A101D.
Description: SANGER: Inhibition of human A101D cell growth in a cell viability assay.
Regarding `CC1(C)CCC(c2ccc(Cl)cc2)=C(CN2CCN(c3ccc(C(=O)NS(=O)(=O)c4ccc(N[C@H](CCN5CCOCC5)CSc5ccccc5)c(S(=O)(=O)C(F)(F)F)c4)cc3)CC2)C1` [NAVITOCLAX], the IC50 was over 2000 nM.

The test system of another experiment is TE-12. Description: cells. The format is functional, cell-based, Homo sapiens. Particulars: Homo sapiens, TE-12.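 Note: growth inhibition of TE-12 cells, read out by a cell viability assay.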
Description: SANGER: Inhibition of human TE-12 cell growth in a cell viability assay.
The molecule `CC1(C)CCC(c2ccc(Cl)cc2)=C(CN2CCN(c3ccc(C(=O)NS(=O)(=O)c4ccc(N[C@H](CCN5CCOCC5)CSc5ccccc5)c(S(=O)(=O)C(F)(F)F)c4)cc3)CC2)C1` [NAVITOCLAX] yielded an IC50 of over 2000 nM.

Another experiment deals with COLO-320-HSR. The experiment can be described thus: cells. The format is functional, cell-based, Homo sapiens. The settings on record: Homo sapiens, COLO-320-HSR.
Description: SANGER: Inhibition of human COLO-320-HSR cell growth in a cell viability assay.
Molecule `CC1(C)CCC(c2ccc(Cl)cc2)=C(CN2CCN(c3ccc(C(=O)NS(=O)(=O)c4ccc(N[C@H](CCN5CCOCC5)CSc5ccccc5)c(S(=O)(=O)C(F)(F)F)c4)cc3)CC2)C1` [NAVITOCLAX] had an IC50 of over 2000 nM.

The subject of another experiment is MFM-223. The experiment can be described thus: cells. The format is functional, cell-based, Homo sapiens. The settings on record: Homo sapiens, MFM-223.
Description: SANGER: Inhibition of human MFM-223 cell growth in a cell viability assay.
Molecule `CC1(C)CCC(c2ccc(Cl)cc2)=C(CN2CCN(c3ccc(C(=O)NS(=O)(=O)c4ccc(N[C@H](CCN5CCOCC5)CSc5ccccc5)c(S(=O)(=O)C(F)(F)F)c4)cc3)CC2)C1` [NAVITOCLAX] displayed a half-maximal inhibitory concentration (IC50) of over 2000 nM.
